Results as given in PubChem BioAssay (NCI).
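In this assay, cells in 96-well plates receive the compound at five concentrations for 48 hours. Endpoints are linearly interpolated between the surrounding concentrations. At the TGI there is no net growth.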

Key:
Assay in all cases: inhibition of tumour cell growth, NCI panel, 48 h
A549 NSCLC = tested on: A549 NSCLC
HCT-116 colon = tested on: HCT-116 colon
HS 578T breast = tested on: HS 578T breast
HT29 colon = tested on: HT29 colon
LOX IMVI melanoma = tested on: LOX IMVI melanoma
M14 melanoma = tested on: M14 melanoma
NCI-H522 lung = tested on: NCI-H522 lung
OVCAR-3 ovarian = tested on: OVCAR-3 ovarian
OVCAR-5 ovarian = tested on: OVCAR-5 ovarian
RPMI-8226 leukemia = tested on: RPMI-8226 leukemia
SF-268 CNS = tested on: SF-268 CNS
TK-10 renal = tested on: TK-10 renal

Compound	TGI (A549 NSCLC) [µM]	TGI (HCT-116 colon) [µM]	TGI (HS 578T breast) [µM]	TGI (HT29 colon) [µM]	TGI (LOX IMVI melanoma) [µM]	TGI (M14 melanoma) [µM]	TGI (NCI-H522 lung) [µM]	TGI (OVCAR-3 ovarian) [µM]	TGI (OVCAR-5 ovarian) [µM]	TGI (RPMI-8226 leukemia) [µM]	TGI (SF-268 CNS) [µM]	TGI (TK-10 renal) [µM]
Cc1n[n+](Cc2ccccc2)c2sc(N)nn12	> 100	> 100	> 100	> 100	> 100	> 100	76.2	> 100	> 100	> 100	> 100	> 100
CCCn1cnc2c(SCc3ccc(Cl)cc3)nc(N)nc21	> 100	44.2	> 100	43.5	50.8	81.5	36.9	41.3	> 100	40.2	> 100	55.1
CC(=O)OC(CCC1(C)OC1COc1ccc(CCNC(=O)C=C(C)C)cc1)C(C)(C)OC(C)=O (stereo not drawn)	> 100	> 100	> 100	> 100	> 100	> 57.6	> 100	> 100	> 100	60.7	> 100	> 100
N/C(=N\S(=O)(=O)c1ccc(-c2ncccc2C(F)(F)F)s1)Nc1ccc(Cl)cc1	36.7	32.5	40.5	39.3	29.8	31.2	23.6	38.7	44	> 100	31.5	26.2
NCCCNCCCCN1CCOC1=O	> 100	> 100	> 100	> 100	> 100	> 100	> 100	> 100	> 100	> 100	> 100	> 100
COc1cccc(CC(=O)N2CCN(CCCc3ccccc3)CC2)c1	> 100	> 100	> 100	> 100	> 100	> 100	> 100	> 100	> 100	> 100	> 100	> 100
COCn1cnc2c(=O)nc(SC)n(-c3ccccc3)c21	> 100	> 100	> 100	> 100	> 100	> 100	> 100	> 100	> 100	> 100	> 100	> 100
COc1cc2c(cc1O)NC(=O)[C@@H]1CCCN1C2=O	> 100	> 100	> 100	> 100	> 100	> 100	> 100	> 100	> 100	> 100	> 100	> 100
Cc1ccc(C(=O)NCc2ccccc2)cc1N=NN(C)C	> 100	> 100	> 100	> 100	> 100	> 100	90.1	> 100	> 100	> 100	> 100	> 100
CN1CCc2c(sc3[nH]c(=S)[nH]c(=S)c23)C1	> 100	> 100	> 100	> 100	> 100	> 100	> 100	> 100	> 100	> 100	> 100	> 100
O=C1C=C(Nc2ccc(S(=O)(=O)Nc3nccs3)cc2)c2ccccc2C1=O	> 100	> 100	75.1	39.3	48.6	42.8	> 100	36	43.9	98.5	> 100	> 100
COC(=O)C1=C(OC)[C@H]2C#C/C=C\C#C[C@@H]3Nc4c(cc(O)c5c4C(=O)c4ccccc4C5=O)[C@]24O[C@@]34[C@H]1C	0.111	7.6	3.82	< 0.0409	< 0.01	< 0.01	0.0177	0.113	0.0311	0.0188	< 0.0341	0.176
COc1ccc(C2c3cc4c(cc3OC(N3CCOCC3)C2C)OCO4)cc1 (stereo not drawn)	> 90.6	> 100	63	> 67.6	> 79.5	> 89	> 82	> 86.1	> 87.5	61.7	> 100	> 100
CCCCCCCCCCCC(=O)OC[C@@H](C[As](=O)(O)O)OC(=O)CCCCCCCCCCC	31.3	21.7	29.4	25.3	18.1	8.47	6.5	16.5	30.8	> 68.2	> 32.2	25
CC(=O)c1c(N=[N+]=[N-])c2cccc3c2n(c1=O)CCC3	> 100	33.5	78.3	35.5	40.8	36.3	28.1	18.9	34.5	66.9	38.6	59
CC1(C)O[C@H]2OC(CO)C(N=[N+]=[N-])[C@H]2O1 (stereo partly drawn)	> 100	> 100	> 100	> 100	> 100	> 100	> 100	> 100	> 100	> 100	> 100	> 100
O=C(Cn1c2ccc(Br)cc2c2nc3ccccc3nc21)NNC(=S)NC1CCCCC1	22.4	26.9	52.9	28.9	24.9	24.2	27.6	22.8	38.9	26.8	39.6	28.7
O=C1/C(=C\c2cccc(Oc3ccccc3)c2)S(=O)(=O)C(c2ccccc2)N1c1cccc(Cl)c1 (stereo not drawn)	> 100	> 100	> 100	> 100	44.8	> 100	> 100	> 100	> 100	78.8	> 100	> 100
C/C(=N\NC(=S)N1CCCC1)c1nc2ncccc2[nH]1	> 100	18.1	> 100	20.2	13.1	31.3	30.2	> 100	20.7	39.4	> 100	45
